Results published in patent publication US10870647B2, “Imidazopyridine derivative, method for preparing same, and pharmaceutical composition containing same as active ingredient for preventing or treating cancer” (DAEGU-GYEONGBUK MEDICAL INNOVATION FOUNDATION, priority 2016, dated 2020).

Legend:
Assay in all cases: Kinase selectivity, scanMAX Kinase assay panel (DiscoverX), % control at 1 uM
Type in all cases: binding
[1] = molecular target: T1, scanMAX Kinase assay panel (Homo sapiens, UniProt O00750); conditions: PIK3C2B; 1 uM; read-out: Percent Control (%)
T1 construct: purchased DiscoverX
T1 sequence (O00750 whole entry): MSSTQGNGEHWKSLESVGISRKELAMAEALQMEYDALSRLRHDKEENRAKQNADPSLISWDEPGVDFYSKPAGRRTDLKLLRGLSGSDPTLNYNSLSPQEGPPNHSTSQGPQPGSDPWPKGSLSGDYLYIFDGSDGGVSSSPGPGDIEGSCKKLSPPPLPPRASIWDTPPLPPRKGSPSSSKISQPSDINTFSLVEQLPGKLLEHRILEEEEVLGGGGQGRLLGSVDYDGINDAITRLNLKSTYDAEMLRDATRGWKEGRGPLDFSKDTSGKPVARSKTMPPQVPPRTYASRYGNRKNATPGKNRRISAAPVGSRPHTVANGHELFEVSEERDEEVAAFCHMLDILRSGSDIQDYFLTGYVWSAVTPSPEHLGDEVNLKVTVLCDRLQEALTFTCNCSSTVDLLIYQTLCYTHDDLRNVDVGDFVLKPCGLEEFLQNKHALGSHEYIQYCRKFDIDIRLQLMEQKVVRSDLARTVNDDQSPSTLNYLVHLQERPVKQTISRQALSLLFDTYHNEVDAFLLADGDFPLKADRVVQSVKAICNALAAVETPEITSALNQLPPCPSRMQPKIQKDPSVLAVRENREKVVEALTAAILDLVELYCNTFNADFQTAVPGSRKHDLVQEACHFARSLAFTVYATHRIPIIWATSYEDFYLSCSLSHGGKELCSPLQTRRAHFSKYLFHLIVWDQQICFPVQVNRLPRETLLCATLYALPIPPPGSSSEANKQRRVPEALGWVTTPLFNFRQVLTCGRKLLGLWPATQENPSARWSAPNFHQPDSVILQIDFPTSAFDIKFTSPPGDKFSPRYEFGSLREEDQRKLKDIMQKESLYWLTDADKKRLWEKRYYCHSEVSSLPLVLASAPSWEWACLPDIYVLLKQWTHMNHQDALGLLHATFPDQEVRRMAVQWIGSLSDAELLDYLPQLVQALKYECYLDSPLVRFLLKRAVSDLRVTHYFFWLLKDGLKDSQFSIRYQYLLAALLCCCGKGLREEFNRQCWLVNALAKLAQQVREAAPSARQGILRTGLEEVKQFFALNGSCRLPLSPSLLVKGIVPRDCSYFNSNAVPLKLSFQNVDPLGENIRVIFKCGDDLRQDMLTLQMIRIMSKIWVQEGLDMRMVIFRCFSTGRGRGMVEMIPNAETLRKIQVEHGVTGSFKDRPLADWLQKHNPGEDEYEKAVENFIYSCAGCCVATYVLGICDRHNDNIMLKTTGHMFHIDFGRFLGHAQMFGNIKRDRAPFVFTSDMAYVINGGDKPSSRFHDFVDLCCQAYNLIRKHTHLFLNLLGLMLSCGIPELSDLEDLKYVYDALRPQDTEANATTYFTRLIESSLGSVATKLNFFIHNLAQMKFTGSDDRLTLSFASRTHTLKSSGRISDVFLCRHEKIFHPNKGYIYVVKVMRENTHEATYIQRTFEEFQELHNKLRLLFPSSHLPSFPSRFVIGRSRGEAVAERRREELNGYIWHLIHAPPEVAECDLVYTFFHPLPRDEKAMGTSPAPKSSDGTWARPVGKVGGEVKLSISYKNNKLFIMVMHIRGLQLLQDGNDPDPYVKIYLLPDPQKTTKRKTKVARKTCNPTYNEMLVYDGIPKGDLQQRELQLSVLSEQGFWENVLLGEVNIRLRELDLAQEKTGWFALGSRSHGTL
How it was run: (§1)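 Each kinase was first exposed to the test compound at 1 uM in DMSO. Signal was then normalised to positive and negative controls to give % control. Finally, any enzyme showing <35% control was judged inhibited.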

[2] = molecular target: T2, scanMAX Kinase assay panel (Homo sapiens, UniProt P04049); conditions: RAF1; 1 uM; read-out: Percent Control (%)
T2 construct: purchased DiscoverX
T2 sequence (P04049 whole entry): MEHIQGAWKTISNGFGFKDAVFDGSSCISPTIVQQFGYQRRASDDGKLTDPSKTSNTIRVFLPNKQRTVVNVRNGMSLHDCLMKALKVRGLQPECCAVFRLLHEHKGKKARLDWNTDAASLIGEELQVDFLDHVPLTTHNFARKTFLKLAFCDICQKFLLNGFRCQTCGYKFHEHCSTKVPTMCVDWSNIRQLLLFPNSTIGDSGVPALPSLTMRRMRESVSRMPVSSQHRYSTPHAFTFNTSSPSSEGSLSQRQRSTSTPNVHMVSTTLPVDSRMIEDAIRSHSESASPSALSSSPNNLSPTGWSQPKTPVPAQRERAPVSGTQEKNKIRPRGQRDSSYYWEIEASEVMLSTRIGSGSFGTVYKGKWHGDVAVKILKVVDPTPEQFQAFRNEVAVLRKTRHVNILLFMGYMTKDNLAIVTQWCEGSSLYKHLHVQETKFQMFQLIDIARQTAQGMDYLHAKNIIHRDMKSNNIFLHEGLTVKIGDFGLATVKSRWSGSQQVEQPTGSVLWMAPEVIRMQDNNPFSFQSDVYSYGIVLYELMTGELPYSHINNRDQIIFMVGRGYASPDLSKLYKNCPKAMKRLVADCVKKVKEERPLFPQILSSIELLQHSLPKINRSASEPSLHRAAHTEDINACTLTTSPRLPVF
How it was run: as §1

[3] = molecular target: T3, scanMAX Kinase assay panel (Homo sapiens, UniProt P51957); conditions: NEK4; 1 uM; read-out: Percent Control (%)
T3 construct: purchased DiscoverX
T3 sequence (P51957 whole entry): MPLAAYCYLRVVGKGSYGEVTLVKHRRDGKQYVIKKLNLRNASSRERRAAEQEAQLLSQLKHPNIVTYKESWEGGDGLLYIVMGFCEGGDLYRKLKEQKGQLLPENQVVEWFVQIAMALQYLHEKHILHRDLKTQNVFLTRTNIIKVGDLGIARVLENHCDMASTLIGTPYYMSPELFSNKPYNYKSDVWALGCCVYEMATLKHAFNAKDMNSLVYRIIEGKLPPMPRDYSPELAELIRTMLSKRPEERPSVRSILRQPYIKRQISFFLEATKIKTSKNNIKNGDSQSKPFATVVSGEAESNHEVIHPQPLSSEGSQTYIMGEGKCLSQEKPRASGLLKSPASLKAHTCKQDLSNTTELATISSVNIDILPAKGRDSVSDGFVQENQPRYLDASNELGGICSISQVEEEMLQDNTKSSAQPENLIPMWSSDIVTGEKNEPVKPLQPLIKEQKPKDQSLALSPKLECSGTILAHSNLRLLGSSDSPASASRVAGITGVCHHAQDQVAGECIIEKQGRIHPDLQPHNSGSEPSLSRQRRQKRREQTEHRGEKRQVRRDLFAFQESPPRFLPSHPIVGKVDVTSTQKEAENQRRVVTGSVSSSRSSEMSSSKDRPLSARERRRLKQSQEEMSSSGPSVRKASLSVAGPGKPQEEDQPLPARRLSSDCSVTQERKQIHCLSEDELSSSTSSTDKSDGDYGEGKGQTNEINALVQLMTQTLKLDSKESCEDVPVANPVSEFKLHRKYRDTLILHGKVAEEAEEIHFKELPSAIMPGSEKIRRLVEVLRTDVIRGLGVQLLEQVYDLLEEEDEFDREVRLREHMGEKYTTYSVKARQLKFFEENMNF
How it was run: as §1

[4] = molecular target: T4, scanMAX Kinase assay panel (Homo sapiens, UniProt Q07912); conditions: TNK2; 1 uM; read-out: Percent Control (%)
T4 construct: purchased DiscoverX
How it was run: as §1

[5] = molecular target: T5, scanMAX Kinase assay panel (Homo sapiens, UniProt Q13882); conditions: BRK; 1 uM; read-out: Percent Control (%)
T5 construct: purchased DiscoverX
T5 sequence (Q13882 whole entry): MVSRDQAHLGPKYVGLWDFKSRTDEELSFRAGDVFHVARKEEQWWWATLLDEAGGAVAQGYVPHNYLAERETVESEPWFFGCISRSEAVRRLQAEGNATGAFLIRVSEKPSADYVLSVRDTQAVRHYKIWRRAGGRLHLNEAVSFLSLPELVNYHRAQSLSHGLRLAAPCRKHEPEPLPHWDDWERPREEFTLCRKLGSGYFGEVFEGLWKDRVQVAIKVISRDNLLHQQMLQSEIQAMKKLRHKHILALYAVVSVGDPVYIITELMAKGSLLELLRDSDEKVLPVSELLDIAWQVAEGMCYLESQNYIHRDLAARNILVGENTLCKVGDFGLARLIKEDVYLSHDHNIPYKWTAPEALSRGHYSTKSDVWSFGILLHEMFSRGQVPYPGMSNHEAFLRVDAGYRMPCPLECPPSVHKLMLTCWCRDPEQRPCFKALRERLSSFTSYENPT
How it was run: as §1

[6] = molecular target: T6, scanMAX Kinase assay panel (Homo sapiens, UniProt Q16539); conditions: p38-alpha; 1 uM; read-out: Percent Control (%)
T6 construct: purchased DiscoverX
T6 sequence (Q16539 whole entry): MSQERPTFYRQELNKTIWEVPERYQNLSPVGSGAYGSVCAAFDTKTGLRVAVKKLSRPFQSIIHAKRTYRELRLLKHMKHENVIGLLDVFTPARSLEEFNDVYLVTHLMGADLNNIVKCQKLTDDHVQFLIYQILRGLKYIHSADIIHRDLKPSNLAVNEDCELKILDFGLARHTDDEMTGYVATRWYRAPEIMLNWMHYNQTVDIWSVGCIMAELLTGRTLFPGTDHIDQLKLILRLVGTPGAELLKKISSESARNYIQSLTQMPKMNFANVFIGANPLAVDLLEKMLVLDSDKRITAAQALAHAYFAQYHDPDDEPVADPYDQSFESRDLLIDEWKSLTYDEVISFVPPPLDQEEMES
How it was run: as §1

[7] = molecular target: T7, scanMAX Kinase assay panel (Homo sapiens, UniProt Q5S007); conditions: LRRK2; 1 uM; read-out: Percent Control (%)
T7 construct: purchased DiscoverX
How it was run: as §1

[8] = molecular target: T8, scanMAX Kinase assay panel (Homo sapiens, UniProt Q92772); conditions: CDKL2; 1 uM; read-out: Percent Control (%)
T8 construct: purchased DiscoverX
T8 sequence (Q92772 1-493): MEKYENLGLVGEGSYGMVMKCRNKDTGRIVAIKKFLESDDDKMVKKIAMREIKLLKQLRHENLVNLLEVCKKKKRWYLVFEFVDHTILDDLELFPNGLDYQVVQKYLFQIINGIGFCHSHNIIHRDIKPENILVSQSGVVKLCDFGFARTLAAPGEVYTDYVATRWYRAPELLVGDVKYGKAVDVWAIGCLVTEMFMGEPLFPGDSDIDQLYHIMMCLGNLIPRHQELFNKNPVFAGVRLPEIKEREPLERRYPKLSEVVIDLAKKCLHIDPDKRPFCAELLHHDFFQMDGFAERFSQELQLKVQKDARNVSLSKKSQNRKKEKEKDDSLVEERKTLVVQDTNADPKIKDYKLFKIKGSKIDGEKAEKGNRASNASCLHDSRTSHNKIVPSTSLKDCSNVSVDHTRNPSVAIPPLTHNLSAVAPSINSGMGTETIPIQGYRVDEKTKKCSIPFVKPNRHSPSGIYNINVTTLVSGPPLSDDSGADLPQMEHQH
How it was run: as §1

[9] = molecular target: T9, scanMAX Kinase assay panel (Homo sapiens, UniProt Q96D53); conditions: ADCK4; 1 uM; read-out: Percent Control (%)
T9 construct: purchased DiscoverX
T9 sequence (Q96D53 1-544): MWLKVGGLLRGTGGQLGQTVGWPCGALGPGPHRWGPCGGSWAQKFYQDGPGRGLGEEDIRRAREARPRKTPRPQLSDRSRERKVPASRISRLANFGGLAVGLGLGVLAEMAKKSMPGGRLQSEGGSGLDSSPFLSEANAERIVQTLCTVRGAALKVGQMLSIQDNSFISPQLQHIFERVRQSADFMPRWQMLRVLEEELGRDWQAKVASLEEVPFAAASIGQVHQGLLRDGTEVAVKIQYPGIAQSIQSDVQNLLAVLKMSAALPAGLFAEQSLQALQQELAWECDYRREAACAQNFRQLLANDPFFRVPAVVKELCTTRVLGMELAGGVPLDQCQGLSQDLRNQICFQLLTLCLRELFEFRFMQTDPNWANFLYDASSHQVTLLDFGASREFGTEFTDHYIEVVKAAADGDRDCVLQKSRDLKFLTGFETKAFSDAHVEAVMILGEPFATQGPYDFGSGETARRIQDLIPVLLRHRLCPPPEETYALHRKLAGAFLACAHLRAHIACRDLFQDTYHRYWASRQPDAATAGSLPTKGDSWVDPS
How it was run: as §1

[10] = molecular target: T10, scanMAX Kinase assay panel (Homo sapiens, UniProt Q9NQU5); conditions: PAK6; 1 uM; read-out: Percent Control (%)
T10 construct: purchased DiscoverX
T10 sequence (Q9NQU5 whole entry): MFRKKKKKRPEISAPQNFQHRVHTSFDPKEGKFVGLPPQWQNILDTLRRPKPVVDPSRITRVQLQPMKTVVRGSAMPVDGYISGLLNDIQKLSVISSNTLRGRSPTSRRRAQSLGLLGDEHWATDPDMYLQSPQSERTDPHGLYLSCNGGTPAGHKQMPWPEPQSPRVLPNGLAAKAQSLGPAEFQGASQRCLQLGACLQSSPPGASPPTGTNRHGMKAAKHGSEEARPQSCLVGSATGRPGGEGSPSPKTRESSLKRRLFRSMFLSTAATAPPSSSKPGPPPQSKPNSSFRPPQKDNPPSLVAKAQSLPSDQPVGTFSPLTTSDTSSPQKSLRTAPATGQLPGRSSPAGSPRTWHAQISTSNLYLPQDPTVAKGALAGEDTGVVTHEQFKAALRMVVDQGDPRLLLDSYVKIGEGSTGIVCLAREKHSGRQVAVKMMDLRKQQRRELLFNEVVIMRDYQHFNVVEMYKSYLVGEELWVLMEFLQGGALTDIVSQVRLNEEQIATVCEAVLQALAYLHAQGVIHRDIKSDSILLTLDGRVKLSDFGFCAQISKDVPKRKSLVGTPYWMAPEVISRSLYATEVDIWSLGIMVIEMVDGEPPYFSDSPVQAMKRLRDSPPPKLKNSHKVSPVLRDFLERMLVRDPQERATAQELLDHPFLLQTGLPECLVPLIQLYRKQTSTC
How it was run: as §1

[11] = molecular target: T11, scanMAX Kinase assay panel (Homo sapiens, UniProt Q9UKE5); conditions: TNIK; 1 uM; read-out: Percent Control (%)
T11 construct: purchased DiscoverX
How it was run: as §1

| SMILES | remaining binding at 1 µM [1] | remaining binding at 1 µM [2] | remaining binding at 1 µM [3] | remaining binding at 1 µM [4] | remaining binding at 1 µM [5] | remaining binding at 1 µM [6] | remaining binding at 1 µM [7] | remaining binding at 1 µM [8] | remaining binding at 1 µM [9] | remaining binding at 1 µM [10] | remaining binding at 1 µM [11] |
| --- | --- | --- | --- | --- | --- | --- | --- | --- | --- | --- | --- |
| Cc1ccc(NC(=O)C2(C(=O)Nc3ccc(F)cc3)CC2)cc1C#Cc1cnc2c(Nc3cnn(C(C)C)c3)cccn12 [Example 78] | 100% | 100% | 100% | 100% | 99% | 14% | 95% | 94% | 100% | 97% | 88% |
| Cc1cn(-c2cc(NC(=O)c3ccc(C)c(C#Cc4cnc5c(Nc6cnn(C)c6)cccn45)c3)cc(C(F)(F)F)c2)cn1 [Example 12, 4-methyl-N-(3-(4-methyl-1H-imidazol-1-yl)-5-(trifluoromethyl)phenyl)-3-((8-((1-methyl-1H-pyrazol-4-yl)amino)imidazo[1,2-a]pyridin-3-yl)ethynyl)benzamide] | 91% | 42% | 61% | 28% | 68% | 7% | 100% | 55% | 95% | 84% | 17% |
| Cc1ccc(C(=O)Nc2ccc(CN3CCN(C)CC3)c(C(F)(F)F)c2)cc1C#Cc1cnc2c(Nc3cnn(C)c3)cccn12 [Example 1, 4-methyl-3-((8-((1-methyl-1H-pyrazol-4-yl)amino)imidazo[1,2-a]pyridin-3-yl)ethynyl)-N-(4-((4-methylpiperazin-1-yl)methyl)-3-(trifluoromethyl)phenyl)benzamide] | 100% | 11% | 9% | 2% | 23% | 0% | 10% | 0% | 88% | 66% | 11% |
